Legend:
[1] = target: AstaPo1 (AstaP-orange1), residues 21-223 (Coelastrella astaxanthina, UniProt S6BQ14); experiment: differential scanning calorimetry, holoform vs apoform; assay type: binding; conditions: 20 mM Na-phosphate pH 7.0, 1 °C per min, apo Tm ~60 °C
AstaPo1^41–190 = target: T1, AstaPo1^41–190 (Coelastrella astaxanthina, UniProt S6BQ14); experiment: SEC with diode-array absorbance; Trp fluorescence quenching; DSC of holoform; assay type: binding; conditions: holoform from ZEA-synthesizing E. coli; apoform insoluble
T1 construct: gene astaP; isolated FAS1 domain 41-190, N- and C-terminal regions removed, His6 cut leaving GPHM, E. coli, 16 kDa, monomer
T1 sequence (S6BQ14 entry or part of it): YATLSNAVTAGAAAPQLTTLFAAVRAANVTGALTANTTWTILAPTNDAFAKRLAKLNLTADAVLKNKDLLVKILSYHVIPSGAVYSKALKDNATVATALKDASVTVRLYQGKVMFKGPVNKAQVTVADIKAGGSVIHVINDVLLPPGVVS

Sequence of AstaPo1 (AstaP-orange1), residues 21-223 (S6BQ14 entry or part of it): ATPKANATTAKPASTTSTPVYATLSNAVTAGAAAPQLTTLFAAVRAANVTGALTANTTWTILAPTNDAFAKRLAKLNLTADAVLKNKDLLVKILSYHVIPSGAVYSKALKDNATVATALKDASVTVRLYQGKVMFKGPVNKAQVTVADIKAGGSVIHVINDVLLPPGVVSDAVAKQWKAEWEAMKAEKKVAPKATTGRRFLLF

Compound | Tm increase ([1]; holoform from ZEA-synthesizing E. coli) | SEC with diode-array absorbance; Trp fluorescence quenching; DSC of holoform (AstaPo1^41–190) | Tm increase ([1]; holoform from CAN-synthesizing E. coli)
CC1=C(/C=C/C(C)=C/C=C/C(C)=C/C=C/C=C(C)/C=C/C=C(C)/C=C/C2=C(C)C[C@@H](O)CC2(C)C)C(C)(C)C[C@H](O)C1 [zeaxanthin] | > 15 °C | which confirms the direct carotenoid interaction within this domain | –
CC1=C(/C=C/C(C)=C/C=C/C(C)=C/C=C/C=C(C)/C=C/C=C(C)/C=C/C2=C(C)C(=O)CCC2(C)C)C(C)(C)CCC1=O [canthaxanthin] | – | – | > 15 °C

Source: article PMC10147662, “Structural basis for the ligand promiscuity of the neofunctionalized, carotenoid-binding fasciclin domain protein AstaP” (Communications Biology, 2023)
